In ChEMBL document CHEMBL1158615, “Synthesis and biological evaluation of bicyclo[3.3.0] octane derivatives as dipeptidyl peptidase 4 inhibitors for the treatment of type 2 diabetes” (Bioorg Med Chem Lett, 2010):
Active and inactive are the calls of the source. No cut-off for these calls is given here.

How the values were obtained:
Mus musculus = assay: Antidiabetic activity in ICR mouse assessed as deduction of glucose excursion at 0.3 to 10 mg/kg, po administered 30 mins before oral glucose challenge measured up to 120 mins by oral glucose tolerance test; assay type: functional, organism-based
Dipeptidyl peptidase 4 = Dipeptidyl peptidase 4 (Homo sapiens, UniProt P27487)
Chain of Dipeptidyl peptidase 4 (P27487 whole entry): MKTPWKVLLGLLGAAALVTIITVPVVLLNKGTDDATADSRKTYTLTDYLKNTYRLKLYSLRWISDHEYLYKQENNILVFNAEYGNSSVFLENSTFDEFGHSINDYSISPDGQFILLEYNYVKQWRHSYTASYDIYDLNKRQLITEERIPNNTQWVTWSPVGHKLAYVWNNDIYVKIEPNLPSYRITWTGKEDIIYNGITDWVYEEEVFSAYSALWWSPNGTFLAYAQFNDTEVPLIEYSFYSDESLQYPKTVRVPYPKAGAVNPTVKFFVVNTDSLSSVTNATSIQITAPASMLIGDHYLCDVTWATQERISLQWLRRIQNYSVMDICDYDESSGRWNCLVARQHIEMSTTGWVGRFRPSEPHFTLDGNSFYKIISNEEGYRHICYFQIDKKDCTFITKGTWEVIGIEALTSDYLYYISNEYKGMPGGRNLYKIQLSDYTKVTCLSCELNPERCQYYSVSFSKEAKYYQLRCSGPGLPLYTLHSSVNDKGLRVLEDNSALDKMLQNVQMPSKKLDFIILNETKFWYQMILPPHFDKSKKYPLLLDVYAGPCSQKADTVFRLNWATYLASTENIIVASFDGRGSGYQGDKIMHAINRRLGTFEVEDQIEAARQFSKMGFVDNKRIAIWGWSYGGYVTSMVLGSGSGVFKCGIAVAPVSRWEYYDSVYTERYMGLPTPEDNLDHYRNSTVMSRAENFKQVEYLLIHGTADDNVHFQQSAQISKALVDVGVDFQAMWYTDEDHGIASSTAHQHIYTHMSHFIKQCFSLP
Description: Inhibition of DPP4 by chemical luminescent assay

| IC50 (Dipeptidyl peptidase 4) [nM] | SMILES | Activity (Mus musculus) |
| --- | --- | --- |
|  | N#C[C@@H]1CCCN1C(=O)CN[C@H]1C[C@H]2C[C@@H](O)C[C@H]2C1 | Active |
| 121 | N#C[C@@H]1CCCN1C(=O)CN[C@@H]1C[C@@H]2C[C@H](OC(=O)Nc3ccccc3)C[C@@H]2C1 |  |
| 204 | CC(C)NC(=O)O[C@H]1C[C@H]2C[C@@H](NCC(=O)N3CCC[C@H]3C#N)C[C@H]2C1 |  |
|  | CO[C@H]1C[C@H]2C[C@@H](NCC(=O)N3CCC[C@H]3C#N)C[C@H]2C1 | Active |
| 326 | CC(C)(C)NC(=O)O[C@H]1C[C@H]2C[C@@H](NCC(=O)N3CCC[C@H]3C#N)C[C@H]2C1 |  |
